{"source": "patent US10766855B2", "about": "“Hydroxamate triterpenoid derivatives” (VIVACELL BIOTECHNOLOGY ESPANA S.L., priority 2016, dated 2020)", "key": {"[1]": {"test_system": "STAT3", "test": "STAT3 inhibition in HeLa-STAT3-Luc cells stimulated with IFN-γ", "assay_type": "cell-based", "conditions": "IFN-γ 25 IU/ml, 6 h", "experimental": "The HeLa-STAT3-luc cells stably transfected with the plasmid 4×M67 pTATA TK-Luc. Cells (20×10^3 cells/ml) were seeded in 96-well plates, treated with increasing concentrations of the compounds II to XIV, and of comparative compound CDDO-Me, for 15 min and then stimulated with IFN-γ 25 IU/ml. After 6 h the luciferase activity in the cell lysates was measured as indicated above. […] The HaCaT-ARE-Luc cell line contains the Nqo1 Antioxidant Response Element (ARE)-Luc reporter plasmid. ARE is activated by all members of the CNC family of factors (Nrf1, Nrf2, Nrf3 and p45 NF-E2). The cells were cultivated in 96-well plates at the concentration of 25×10^3 cells/well in a CO2 incubator at 37° C. For induction of Nrf2 activation the cells were treated with increasing concentrations of the compounds II to XV, and of comparative compound CDDO-Me, for 6 h. As a positive control the cells were treated with 0.02 mM of the antioxidant Tert-butyl-hydroquinone (TBHQ). Luciferase activity in the cell lysates was measured as indicated above and the EC50 calculated (Table III). The CHO-TGR5-CRE-Luc cells stably transfected with the pTGR5 and CRE-Luc. The CRE-responsive luciferase construct encodes the firefly luciferase reporter gene under the control of a minimal (m)CMV promoter and tandem repeats of the CRE transcriptional response element (TRE) and is useful to monitor cAMP signaling pathways activated by TGR5 agonists. Cells (1×10^4/well) were seeded in 96-well plates, treated with increasing concentrations of the compounds II to XV and CDDO-Me, for 6 h. As a positive control the cells were treated with 10 μM of LCA (lithocholic acid). Luciferase activity in the cell lysates was measured as indicated above and the EC50 calculated (Table III)."}, "[2]": {"test_system": "HIF-1α", "test": "HIF-1α transactivation assay in NIH-3T3-EPO-Luc fibroblast cells", "assay_type": "cell-based", "conditions": "6 h stimulation", "experimental": "To investigate the biological activities of the different compounds, HIF-1α transactivation assays were performed either in NIH-3T3-EPO-Luc cells (Table II) or in HaCaT-EPO-luc cells (FIG. 2). The NIH3T3-EPO-luc and HaCaT-EPO-luc cells have been stably transfected with the plasmid Epo-Luc plasmid. The EPO-Hypoxia Response Element (HRE)-luciferase reporter plasmid contains three copies of the HRE consensus sequence from the promoter of the erythropoietin gene fused to the luciferase gene. NIH3T3-EPO-luc cells were maintained at 37° C. in a humidified atmosphere containing 5% CO2 in DMEM supplemented with 10% fetal calf serum (FBS), and 1% (v/v) penicillin/streptomycin. DFX was purchased from Sigma-Aldrich (USA). Cells (1×10^4/well in 96 well plates) were seeded the day before the assay. […] After six hours of stimulation the cells were lysed in 25 mM Tris-phosphate pH 7.8, 8 mM MgCl2, 1 mM DTT, 1% Triton X-100, and 7% glycerol during 15 min at RT in a horizontal shaker. Luciferase activity is measured using a microplate luminometer (Berthold) following the instructions of the luciferase assay kit (Promega, Madison, Wis., USA)."}, "[3]": {"test_system": "HUVEC", "test": "Endothelial cell tube formation (angiogenesis) in HUVEC co-cultured with fibroblasts", "assay_type": "cell-based, human", "conditions": "1 μM, 7 days", "experimental": "Measurements of endothelial cell tube formation as a model of angiogenesis in green fluorescent Human endothelial vascular cells (HUVEC) co-cultured with primary fibroblasts and stimulated separately with compound VII (1 μM), rhFGF (10 ng/ml) and VEGFA (10 ng/ml) for 7 days. Values represent the mean±SEM (n=3).\nTo test the functional consequences of compound VII stimulation in a physiological model, endothelial cell tube formation was measured as a model of angiogenesis. CellPlayer™ GFP AngioKit-96 (Essen BioScience Inc., Welwyn Garden City, UK) was supplied as growing co-cultures of human matrix (normal human dermal fibroblast, NHDF) and endothelial cells (HUVEC) at the earliest stages of tubule formation. CellPlayer 96-well kinetic angiogenesis assay was performed according to the manufacturer's protocol. Briefly, lentivirally infected green fluorescent protein (GFP)-HUVECs were cocultured with normal human dermal fibroblasts in a 96-well microplate. The plate was placed in IncuCyte, and images were automatically acquired in both phase and fluorescence every 6 hours for 7 days. […] Tube formation over the 7-day assay was quantified using the Essen BioScience Angiogenesis Analysis Module. […] Briefly, the fluorescent images were analyzed to generate a segmentation mask closely resembling the in vitro network. […]"}, "[4]": {"test_system": "HFD mice", "test": "High fat diet (HFD) model of diabetes and metabolic pathologies in mice", "assay_type": "in vivo, mouse", "conditions": "30 mg/kg i.p. every 24 h", "experimental": "High-fat diet-fed mouse is a widely used model for impaired glucose tolerance (IGT) and type 2 diabetes. Eight-week-old male C57BL/6 mice (Charles River-France) were used for experiments. Mice were maintained under controlled conditions [12 h light/dark cycle; temperature 20° C. (±2° C.) and 40-50% relative humidity] with free access to tap water and standard rodent chow ad libitum. After 1 week of acclimatization, mice were divided into two groups and fed ad libitum with a standard diet—CD- (Code U8220G10R, SAFE Diets, Augy, France) or a High-Fat diet—HFD- (D12451; Research Diets, New Brunswick, N.J.) in order to induce obesity for 15 weeks (diet-induced obesity, DIO). In order to assess the potential beneficial metabolic effects of compound VII in this model of DIO, pharmacological administration of the compound (30 mg/kg body weight) was performed by intraperitoneal (i.p.) injection every 24 h from 12th to 15th week of diet exposure. Control animals received the corresponding vehicle injections (1:1:18 Ethanol:Cremophor:Saline).\nTo ensure the effectiveness of HFD feeding regimen and assess the efficacy of compounds in terms of amelioration of the metabolic phenotype, body composition analyses of fat and lean masses were performed by QMR (quantitative magnetic resonance) using the EchoMRI™ 700 analyzer (Houston, Tex., software v. 2.0). In this sense, MRI scans were taken in three time points during the experimental period: before starting diet exposure, after 12 week of feeding regimen (coinciding with start of treatment) and at the end of experimental procedures (on the 15th week of diet exposure). Additionally, five days before sacrifice, glucose tolerance test (GTT) was performed in overnight food-deprived mice. To this end, mice were injected intraperitoneally with 2 mg of glucose/g body weight and blood glucose was measured before and 30, 60 and 120 min after injection utilizing an Accu-Chek Advantage® (Roche) glucometer. At the end of the experiment, mice were sacrificed and blood samples were collected using EDTA-coated tubes and plasma stored at −80° C. Plasma triglycerides were measured using and enzymatic colorimetric kit (QCA, Barcelona, Spain)."}}, "data": [{"molecule": "C=C(C)[C@@H]1CC[C@]2(C(=O)NO)CC[C@]3(C)[C@H](CC[C@@H]4[C@@]5(C)CC[C@H](O)C(C)(C)[C@@H]5CC[C@]43C)[C@@H]12", "note": "[Compound VII, (3β) 3-Hydroxy-N-hydroxy-lup-20(29)-en-28-amide]", "values": [{"measurement": "IC50", "setting": "[1]", "result": "> 50", "unit": "µM"}, {"measurement": "Efficacy HIF-1α (IRA coefficient)", "setting": "[2]; relative to 150 μM DFX", "result": 0.36}, {"measurement": "EC50", "setting": "[2]; Fibroblast, read-out: Potency EC50 HIF-1α", "result": 4.81, "unit": "µM"}, {"measurement": "network length in HUVEC cells", "setting": "[3]", "result": "increased significantly the network length"}, {"measurement": "glucose tolerance (GTT)", "setting": "[4]; 3 weeks", "result": "improved glucose tolerance"}, {"measurement": "plasma levels of triglycerides", "setting": "[4]; 3 weeks", "result": "normalize the plasma levels of triglycerides"}, {"measurement": "adiposity", "setting": "[4]; 12th to 15th week", "result": "alleviated"}, {"measurement": "increase in Fat Mass", "setting": "[4]; 12th to 15th week", "result": "alleviated"}, {"measurement": "weight gain", "setting": "[4]; 12th to 15th week", "result": "alleviated weight gain"}]}]}
